Measured values published in ChEMBL document CHEMBL3885861, “Open TG-GATES”.

Species: Rattus norvegicus
Test: Open TG-GATES - Regimen: Single
Type: toxicity, organism-based, Sprague-Dawley
Design: regimen Single, gender Male, age 6 weeks
Settings: in vivo, po, 20 mg/kg, route gavage, dose level High; for KIDNEY_L / KIDNEY_R / KIDNEY_TOTAL: tissue Kidney; for LIVER: tissue Liver; for ALP / ALT / AST / BUN / CRE / Ca / Cl / DBIL / GLC / IP / K / LDH / Na / PL / RALB / TBIL / TC / TG / TP / gamma-GTP: tissue Plasma

OCCN1CCN(CCCN2c3ccccc3Sc3ccc(C(F)(F)F)cc32)CC1 [FLUPHENAZINE]
TERMINAL_BW (3 h): 197.6 g
APTT (3 h, tissue Blood): 16.7 s
Bas (3 h, tissue Blood): 0%
Eos (3 h, tissue Blood): 0.8%
Fbg (3 h, tissue Blood): 205.4 mg/dL
Hb (3 h, tissue Blood): 12.9 g/dL
Lym (3 h, tissue Blood): 81.6%
MCH (3 h, tissue Blood): 21.4 pg
MCHC (3 h, tissue Blood): 33%
MCV (3 h, tissue Blood): 64.9 fL
Mono (3 h, tissue Blood): 4.4%
Neu (3 h, tissue Blood): 13.6%
PT (3 h, tissue Blood): 12.7 s
Plat (3 h, tissue Blood): 111.6 x10_4/uL
RBC (3 h, tissue Blood): 600.6 x10_4/ul
Ret (3 h, tissue Blood): 9.2%
WBC (3 h, tissue Blood): 64.5 x10_2/uL
KIDNEY_L (3 h): 0.9 g
KIDNEY_R (3 h): 0.9 g
KIDNEY_TOTAL (3 h): 1.8 g
LIVER (3 h): 9.2 g
ALP (3 h): 781.6 IU/L
ALT (3 h): 29.4 IU/L
AST (3 h): 58 IU/L
BUN (3 h): 10 mg/dL
CRE (3 h): 0.5 mg/dL
Ca (3 h): 10.7 mg/dL
Cl (3 h): 107.4 meq/L
DBIL (3 h): 0.006 mg/dL
GLC (3 h): 225.6 mg/dL
IP (3 h): 10.6 mg/dL
K (3 h): 4.3 meq/L
LDH (3 h): 145.2 IU/L
Na (3 h): 139 meq/L
PL (3 h): 132 mg/dL
RALB (3 h): 3.7 g/dL
TBIL (3 h): 0.3 mg/dL
TC (3 h): 74.6 mg/dL
TG (3 h): 33.8 mg/dL
TP (3 h): 5.3 g/dL
gamma-GTP (3 h): 1.6 IU/L
TERMINAL_BW (6 h): 194.7 g
APTT (6 h, tissue Blood): 16.3 s
Bas (6 h, tissue Blood): 0%
Eos (6 h, tissue Blood): 0.4%
Fbg (6 h, tissue Blood): 205.8 mg/dL
Hb (6 h, tissue Blood): 12.8 g/dL
Lym (6 h, tissue Blood): 79%
MCH (6 h, tissue Blood): 21.9 pg
MCHC (6 h, tissue Blood): 32.9%
MCV (6 h, tissue Blood): 66.4 fL
Mono (6 h, tissue Blood): 6.4%
Neu (6 h, tissue Blood): 14.6%
PT (6 h, tissue Blood): 12.3 s
Plat (6 h, tissue Blood): 100.1 x10_4/uL
RBC (6 h, tissue Blood): 587.4 x10_4/ul
Ret (6 h, tissue Blood): 7.7%
WBC (6 h, tissue Blood): 59.6 x10_2/uL
KIDNEY_L (6 h): 0.9 g
KIDNEY_R (6 h): 0.9 g
KIDNEY_TOTAL (6 h): 1.8 g
LIVER (6 h): 8.8 g
ALP (6 h): 839.8 IU/L
ALT (6 h): 32 IU/L
AST (6 h): 60.2 IU/L
BUN (6 h): 10.6 mg/dL
CRE (6 h): 0.5 mg/dL
Ca (6 h): 10 mg/dL
Cl (6 h): 107.4 meq/L
DBIL (6 h): 0.018 mg/dL
GLC (6 h): 215.2 mg/dL
IP (6 h): 9.9 mg/dL
K (6 h): 4.3 meq/L
LDH (6 h): 171.6 IU/L
Na (6 h): 138 meq/L
PL (6 h): 125.6 mg/dL
RALB (6 h): 3.5 g/dL
TBIL (6 h): 0.4 mg/dL
TC (6 h): 76 mg/dL
TG (6 h): 16.6 mg/dL
TP (6 h): 5.3 g/dL
gamma-GTP (6 h): 1.2 IU/L
TERMINAL_BW (9 h): 190.3 g
APTT (9 h, tissue Blood): 16.3 s
Bas (9 h, tissue Blood): 0%
Eos (9 h, tissue Blood): 0.2%
Fbg (9 h, tissue Blood): 214.8 mg/dL
Hb (9 h, tissue Blood): 12.7 g/dL
Lym (9 h, tissue Blood): 76.8%
MCH (9 h, tissue Blood): 21.3 pg
MCHC (9 h, tissue Blood): 33.1%
MCV (9 h, tissue Blood): 64.4 fL
Mono (9 h, tissue Blood): 6%
Neu (9 h, tissue Blood): 16.4%
PT (9 h, tissue Blood): 12.3 s
Plat (9 h, tissue Blood): 113.7 x10_4/uL
RBC (9 h, tissue Blood): 594 x10_4/ul
Ret (9 h, tissue Blood): 8.4%
WBC (9 h, tissue Blood): 72.7 x10_2/uL
KIDNEY_L (9 h): 0.9 g
KIDNEY_R (9 h): 0.9 g
KIDNEY_TOTAL (9 h): 1.8 g
LIVER (9 h): 7.8 g
ALP (9 h): 741.8 IU/L
ALT (9 h): 28.8 IU/L
AST (9 h): 56 IU/L
BUN (9 h): 9.6 mg/dL
CRE (9 h): 0.5 mg/dL
Ca (9 h): 10 mg/dL
Cl (9 h): 107 meq/L
DBIL (9 h): 0.03 mg/dL
GLC (9 h): 197 mg/dL
IP (9 h): 9.6 mg/dL
K (9 h): 4.2 meq/L
LDH (9 h): 157.8 IU/L
Na (9 h): 139.2 meq/L
PL (9 h): 135 mg/dL
RALB (9 h): 3.7 g/dL
TBIL (9 h): 0.3 mg/dL
TC (9 h): 89 mg/dL
TG (9 h): 11.2 mg/dL
TP (9 h): 5.3 g/dL
gamma-GTP (9 h): 1.2 IU/L
TERMINAL_BW (24 h): 176 g
APTT (24 h, tissue Blood): 16.6 s
Bas (24 h, tissue Blood): 0%
Eos (24 h, tissue Blood): 0.2%
Fbg (24 h, tissue Blood): 206.6 mg/dL
Hb (24 h, tissue Blood): 14.7 g/dL
Ht (24 h, tissue Blood): 44.3%
Lym (24 h, tissue Blood): 81.2%
MCH (24 h, tissue Blood): 21.5 pg
MCHC (24 h, tissue Blood): 33.2%
MCV (24 h, tissue Blood): 64.8 fL
Mono (24 h, tissue Blood): 7.6%
Neu (24 h, tissue Blood): 10.6%
PT (24 h, tissue Blood): 12.2 s
Plat (24 h, tissue Blood): 125.2 x10_4/uL
RBC (24 h, tissue Blood): 684 x10_4/ul
Ret (24 h, tissue Blood): 6.6%
WBC (24 h, tissue Blood): 78.6 x10_2/uL
KIDNEY_L (24 h): 0.9 g
KIDNEY_R (24 h): 0.9 g
KIDNEY_TOTAL (24 h): 1.8 g
LIVER (24 h): 7.5 g
ALP (24 h): 847.4 IU/L
ALT (24 h): 27.8 IU/L
AST (24 h): 69.6 IU/L
BUN (24 h): 23.8 mg/dL
CRE (24 h): 0.5 mg/dL
Ca (24 h): 10.5 mg/dL
Cl (24 h): 105.4 meq/L
DBIL (24 h): 0.012 mg/dL
GLC (24 h): 176 mg/dL
IP (24 h): 9 mg/dL
K (24 h): 4.9 meq/L
LDH (24 h): 171.6 IU/L
Na (24 h): 138.6 meq/L
PL (24 h): 138.8 mg/dL
RALB (24 h): 4.3 g/dL
TBIL (24 h): 0.3 mg/dL
TC (24 h): 87.6 mg/dL
TG (24 h): 44.6 mg/dL
TP (24 h): 6.1 g/dL
gamma-GTP (24 h): 1.2 IU/L
